Where two headings read alike, the source gives them in different places.
Columns and labels:
[1] = tested on: inflammatory reactions of MS in the animal model; conditions: cited from earlier work
MS patients [2] = conditions: cited from earlier work
[3] = tested on: patients having clinically active MS; assay: treatment trial of MS patients with zileuton (Zyflo Filmtab), three years, with brain nuclear magnetic resonance using Magnevist; type: in vivo, humans
Protocol: 15 patients having clinically active MS were treated with zileuton in a treatment trial. 15 MS patients without this treatment served as a control. One tablet of Zyflo™Filmtab® was administered to each four times a day.

MS patients [4] = conditions: cited from earlier work; remark: listed apart in the source
[5] = tested on: experimental allergic encephalomyelitis (EAE); conditions: cited from earlier work
[6] = 15 MS patients, one Zyflo Filmtab tablet four times a day, three years, compared with 15 MS patients without this treatment

SMILES: O=C(O)c1cc(/N=N/c2ccc(S(=O)(=O)Nc3ccccn3)cc2)ccc1O [azulfidine]
- effect in the animal model (suppression of inflammatory reactions of MS) [1]: successful in the animal model
- effect of treatment in MS patients (MS patients [2]; first 18 months of treatment, double blind study): exceptionally beneficial effect could be proven
- effect of treatment in MS patients (MS patients [2]; three years after the end of the study): this effect could no longer be proven

SMILES: CC(c1cc2ccccc2s1)N(O)C(N)=O (centres unmarked) [zileuton, 1-(1-benzo[b]thien-2-ylethyl)-1-hydroxy urea]
- chronic progression [3, 6]: significantly decreased
- frequency of attacks [3, 6]: significantly decreased
- new or acute centres of inflammation absorbing the contrast agent (brain nuclear magnetic resonance) ([3]; every six months, contrast agent Magnevist): No new or acute centres absorbing the contrast agent could be determined

SMILES: Cn1cnc([N+](=O)[O-])c1Sc1ncnc2[nH]cnc12 [azothioprin]
- effect in the treatment of MS patients (MS patients [4]): not convincing
- effect in the EAE animal test [5]: showed promising indications

— patent US20050020665A1, “Pharmaceutical composition for treating multiple sclerosis” (priority 2001, published 2005)
